Measured values: PubChem BioAssay (NCI)
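Five concentrations, 48 hours, 96-well plates. Definition used: TGI = concentration required for complete inhibition of growth.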 Numbered stars: 1 amine (or outer) side, 2 acyl side, 3 side chain; on linkers, the order of the positions; unused ones are H or OH. Bridge positions count the residues as written; N and C are the ends. Where a SMILES comes first, the peptide text is derived from it. Square brackets hold non-standard residues; d marks the D form. Peptide text beside a SMILES is read from it. I, II: the chains in the order shown. The star is where a group is joined. Actinocin(1to9) = Cc1c2oc3c(C)ccc(C(=O)[*:2])c3nc-2c(C(=O)[*:1])c(N)c1=O; Fmoc = O=C(OCC1c2ccccc2-c2ccccc21)*; NMeV = CN[CH](C(=O)O)C(C)C; Boc = CC(C)(C)OC(=O)*; Sar = CNCC(=O)O

What was measured:
Test in all cases: NCI-60 cell line screen, 48 h
HS 578T breast = test system: HS 578T breast
MCF7 breast = test system: MCF7 breast
HOP-92 NSCLC = test system: HOP-92 NSCLC
RXF 393 renal = test system: RXF 393 renal
SF-295 CNS = test system: SF-295 CNS
SK-OV-3 ovarian = test system: SK-OV-3 ovarian
NCI-H522 lung = test system: NCI-H522 lung

| SMILES | TGI (HS 578T breast) | TGI (MCF7 breast) | TGI (HOP-92 NSCLC) | TGI (RXF 393 renal) | TGI (SF-295 CNS) | TGI (SK-OV-3 ovarian) | TGI (NCI-H522 lung) |
| --- | --- | --- | --- | --- | --- | --- | --- |
| CC(C)(C)OC(=O)CC(NC(=O)OC(C)(C)C)C(=O)Oc1ccc([N+](=O)[O-])cc1 (stereo not given) | > 100 µM | > 100 µM | > 100 µM | > 100 µM | > 100 µM | > 100 µM | > 100 µM |
| Cn1c2c(c3c(=O)[nH]ncc31)CCCc1ccccc1-2 | > 100 µM | 53 µM | 41.3 µM | – | > 100 µM | 64 µM | 38.3 µM |
| COC(=O)C(=O)C(C(=O)C(=O)Nc1nc(=S)[nH][nH]1)c1nc2ccc([N+](=O)[O-])cc2[nH]c1=O (stereo not given) | > 100 µM | > 100 µM | > 100 µM | > 100 µM | > 100 µM | > 100 µM | > 100 µM |
| CN1C(=O)C(O)C[C@@H]1c1ccc(F)cc1 (stereo not given in full) | – | > 100 µM | > 100 µM | > 100 µM | > 100 µM | > 100 µM | – |
| CCOC(=O)c1c[nH]c2cc3c(cc2c1=O)CCS3 | > 100 µM | > 100 µM | > 100 µM | > 100 µM | > 100 µM | > 100 µM | > 100 µM |
| CCO/N=C(/CC)c1ccc(Br)s1 | > 100 µM | > 100 µM | > 100 µM | > 100 µM | > 100 µM | > 100 µM | > 100 µM |
| O=C(N1CCN(c2ccccc2)CC1)N(C(=O)C1(c2ccc(Cl)cc2)CCCC1)S(=O)(=O)c1ccccc1 | 88.2 µM | 74.9 µM | 74.4 µM | > 100 µM | 70.6 µM | 82.9 µM | 36.6 µM |
| CSc1nc(Cl)c2c(n1)Sc1nc3ccccc3n1N=C2 | 62.1 µM | – | 45.2 µM | 43.4 µM | > 100 µM | > 100 µM | 39.4 µM |
| Cc1ccc(NCc2nnc3c(-c4ccccc4)nc4ccccc4n23)cc1 | > 100 µM | > 100 µM | 50 µM | > 100 µM | > 100 µM | > 100 µM | > 100 µM |
| O=c1c2cc([N+](=O)[O-])cnc2sn1-c1ccc(Br)cc1 | > 100 µM | > 100 µM | 54.7 µM | – | 47.1 µM | 99 µM | 22.6 µM |
| NC(N)=N/N=C/c1c(-c2ccc(Cl)cc2)nc2n1CCS2 | 58.8 µM | 27.9 µM | 22.6 µM | 24.5 µM | 11.3 µM | 27 µM | 28.7 µM |
| COC(=O)c1c(OC(C)=O)ccc2c1c1cc3ccccc3c(OC(C)=O)c1n2C | 36.7 µM | > 100 µM | 37 µM | > 100 µM | > 100 µM | 55.2 µM | 42.9 µM |
| CCOC(=O)/C=C1\C[C@H](NC(=O)OCc2ccccc2)C(=O)N1CC(=O)OCC | > 100 µM | > 100 µM | > 100 µM | > 100 µM | > 100 µM | > 100 µM | > 100 µM |
| Cc1ccc(C)c(C(=N)c2ccccc2Cc2ccccc2)c1 | 20.7 µM | 32.4 µM | 46.4 µM | 34.9 µM | 56 µM | 79.1 µM | 30 µM |
| CCCC(=O)Oc1cc(OC(=O)CCC)c2c(C)cc(=O)oc2c1 | > 100 µM | > 100 µM | > 100 µM | – | > 100 µM | > 100 µM | – |
| COC(=O)/C=C/N1CC1 | > 10 µM | > 10 µM | – | – | > 10 µM | > 10 µM | > 10 µM |
| CC(C)[Si](OC1=CCC[C@H]2NC(=O)[C@@H](Cc3ccc([N+](=O)[O-])cc3)[C@@]12C)(C(C)C)C(C)C | 25.1 µM | 10.7 µM | – | 4.72 µM | 16.9 µM | 21.7 µM | 17.9 µM |
| CC(=O)Oc1cc2c(n(C)c1=O)CCC2 | – | > 100 µM | > 100 µM | – | > 100 µM | > 100 µM | – |
| COc1ccccc1NC1=NCC(C)S1 (stereo not given) | > 100 µM | > 100 µM | > 100 µM | > 100 µM | > 100 µM | > 100 µM | > 100 µM |
| Cc1cc2nc3c(C#N)c4c(c(Nc5ccc(Cl)cc5)n3c2cc1C)CCC4 | – | – | 47.8 µM | 33.8 µM | > 100 µM | > 100 µM | 26.5 µM |
| COc1cccc(-c2cc(=O)c3cc(N4CCCC4)ccc3[nH]2)c1 | > 10 µM | > 4.67 µM | > 10 µM | – | < 0.001 µM | – | < 0.001 µM |

| SMILES | TGI (HS 578T breast) | TGI (MCF7 breast) | TGI (HOP-92 NSCLC) | TGI (RXF 393 renal) | TGI (SF-295 CNS) | TGI (SK-OV-3 ovarian) | TGI (NCI-H522 lung) |
| --- | --- | --- | --- | --- | --- | --- | --- |
| O=C(O)CCCN=C(C(=NCCCC(=O)O)c1ccccc1)c1ccccc1 | > 100 µM | > 100 µM | – | > 100 µM | > 100 µM | > 100 µM | – |
| COc1cc(OC)cc(Oc2nc3c(N)cc(C(F)(F)F)cc3nc2-c2ccccc2)c1 | > 100 µM | 99 µM | > 100 µM | > 100 µM | > 100 µM | > 100 µM | – |
| O=Cc1ccc2[nH]c(=O)oc2c1 | > 100 µM | > 100 µM | – | > 100 µM | > 100 µM | > 100 µM | – |
| CCOC(=O)c1c(CN2CCOCC2)n(Cc2ccccc2)c2c1cc(O)c1nc(C)c(C)nc12 | > 100 µM | 34.5 µM | – | – | > 100 µM | > 100 µM | – |
| CCCC(=O)OC1=C(c2ccccc2)Sc2ccccc2-n2cccc21 | – | > 10 µM | > 10 µM | > 10 µM | > 10 µM | > 10 µM | – |
| CCC(C)C1NC(=O)C(NC(=O)c2c3nc4c(C(=O)NC5C(=O)NC(C(C)C)C(=O)N6CCCC6C(=O)N(C)CC(=O)N(C)C(C(C)C)C(=O)OC5C)ccc(C)c4oc-3c(C)c(=O)c2N)C(C)OC(=O)C(C(C)C)N(C)C(=O)CN(C)C(=O)C2CCCN2C1=O (stereo not given) (I: TIP[Sar][NMeV] / II: TVP[Sar][NMeV]; ester I:1-I:C, II:1-II:C; linker I:N-II:N via Actinocin(1to9); configuration not given here) | 0.363 µM | > 100 µM | 0.0476 µM | 0.0102 µM | – | 13.2 µM | 0.0158 µM |
| CC(C)(C)c1cc2c(O)c(c1)COCc1cc(C(C)(C)C)cc(c1O)COCc1cc(C(C)(C)C)cc(c1O)COC2 | – | > 100 µM | > 100 µM | > 100 µM | > 100 µM | > 100 µM | – |
| O=C(NC(Cc1ccccc1)P(=O)(O)c1ccccc1)OCc1ccccc1 (stereo not given) | > 100 µM | > 100 µM | > 100 µM | – | > 100 µM | > 100 µM | > 100 µM |
| C=C(C)COC(=O)COCC(=O)OCC(=C)C | > 100 µM | > 100 µM | > 100 µM | > 100 µM | > 100 µM | > 100 µM | – |
| Cc1ccc2c(c1)C/C(=C\c1ccccc1C(=O)O)C2=O | > 100 µM | > 100 µM | > 100 µM | > 100 µM | > 100 µM | – | > 100 µM |
| S=c1sscc1N1CCSc2ssc(=S)c21 | > 100 µM | > 100 µM | 31 µM | > 100 µM | – | – | 59.7 µM |
| COc1ccc(NC(C)=O)cc1N1C(=O)/C(=C\c2cccc(Oc3ccccc3)c2)SC1c1ccccc1 (stereo not given) | – | > 100 µM | 79.6 µM | > 100 µM | > 100 µM | > 100 µM | > 100 µM |
| CC(C)(C)OC(=O)NCCCCC(NC(=O)C(Cc1c[nH]c2ccccc12)NC(=O)OCC1c2ccccc2-c2ccccc21)C(=O)O (stereo not given) (Fmoc-Trp-Lys(Boc)-OH; configuration not given here) | 96.2 µM | > 100 µM | 67 µM | > 100 µM | > 100 µM | 35.6 µM | – |
| N=c1oc2ccc(Cl)cc2cc1C(=O)NC1CCCCC1 | > 100 µM | > 100 µM | > 100 µM | > 100 µM | – | > 100 µM | – |
| Cc1ccc2nnc(NS(=O)(=O)c3cc(C)c(Cl)cc3S)n2n1 | > 100 µM | > 100 µM | > 100 µM | > 100 µM | – | > 100 µM | > 100 µM |
| CC(=O)Oc1ccc2c3c1[C@@H]1O[C@@H]1c1cccc(c1-3)[C@@H]1O[C@H]21 | 5.98 µM | > 100 µM | – | 2.73 µM | 3.83 µM | 9.71 µM | – |
| CC(C)[C@H]1NC(=O)[C@H]2N=C(O[C@@H]2C)[C@@H]2CCCN2C(=O)[C@H](Cc2ccccc2)NC(=O)[C@@H]2COC(=N2)[C@@H](Cc2ccccc2)NC(=O)[C@@H]2COC1=N2 | > 100 µM | > 100 µM | – | > 100 µM | > 100 µM | > 100 µM | > 100 µM |
| CC1CC/C(=C\c2ccc(F)cc2)C2=C1C(c1ccc(F)cc1)n1c(s/c(=C\c3ccc(Cl)cc3)c1=O)=N2 (stereo not given) | > 100 µM | > 100 µM | > 100 µM | > 100 µM | – | > 100 µM | – |
| C[Si](C)(C)C#CCOC=C1CC1 | > 100 µM | > 100 µM | – | > 100 µM | > 100 µM | > 100 µM | > 100 µM |
| C1COCCOP2(N3CC3)=NP(N3CC3)(=NP(N3CC3)(N3CC3)=N2)OCCOCCO1 (stereo not given) | > 100 µM | > 100 µM | – | > 100 µM | > 100 µM | > 100 µM | > 100 µM |
